The results in this text go back to PubChem BioAssay AID328 (DTP/NCI, 2004).

Where “and” joins values, the source holds several entries; their conditions need not be identical. Identical values can stand only once. Toxic doses and inconclusive results are not listed.

In this experiment the test system is BDF1 mice, P388 leukemia ip, median survival T/C. The experiment can be described thus: NCI In Vivo Anticancer Drug Screen. Data for tumor model P388 Leukemia (intraperitoneal) in B6D2F1 (BDF1) mice. The following applies: endpoint: median survival time, higher = longer survival. In a few lines:
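Steps: implant the tumour, treat one group with compound and another with vehicle, record survival, then divide treated by control.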

Setting [1] is: dose: 25.0 mg/kg/injection, schedule: Q01DX009 (ip), vehicle: Klucel (hydroxypropylcellulose) (HPC).
Setting [2] is: dose: 100.0 mg/kg/injection, schedule: Q01DX009 (ip), vehicle: Klucel (hydroxypropylcellulose) (HPC).
The mark [3] stands for this setting: dose: 100.0 mg/kg/injection, schedule: Q01DX009 (ip), vehicle: other.
The mark [4] stands for this setting: dose: 200.0 mg/kg/injection, schedule: Q01DX009 (ip), vehicle: other.
Where [5] appears, read: dose: 100.0 mg/kg/injection, schedule: Q04DX003 (ip), vehicle: Klucel (hydroxypropylcellulose) (HPC).
Setting [6] is: dose: 200.0 mg/kg/injection, schedule: Q01DX009 (ip), vehicle: Klucel (hydroxypropylcellulose) (HPC).
Setting [7] is: dose: 200.0 mg/kg/injection, schedule: Q04DX003 (ip), vehicle: Klucel (hydroxypropylcellulose) (HPC).
The mark [8] stands for this setting: dose: 400.0 mg/kg/injection, schedule: Q01DX009 (ip), vehicle: Klucel (hydroxypropylcellulose) (HPC).
The mark [9] stands for this setting: dose: 400.0 mg/kg/injection, schedule: Q04DX003 (ip), vehicle: Klucel (hydroxypropylcellulose) (HPC).

Consider `COC(=O)c1cc(Cl)nc2nc(Cl)nc(Cl)c12`, for which the T/C reads like this: (dose: 50.0 mg/kg/injection, schedule: Q01DX009 (ip), vehicle: DMSO) 114 % of control; (dose: 100.0 mg/kg/injection, schedule: Q01DX009 (ip), vehicle: DMSO) 112 % of control; (dose: 200.0 mg/kg/injection, schedule: Q01DX009 (ip), vehicle: DMSO) 102 % of control.
Take `COc1ccc2c(Cc3ccccc3)cncc2c1O`: the T/C is 99 % of control (dose: 6.25 mg/kg/injection, schedule: Q01DX009 (ip), vehicle: Klucel (hydroxypropylcellulose) (HPC)); 100 % of control (dose: 12.5 mg/kg/injection, schedule: Q01DX009 (ip), vehicle: Klucel (hydroxypropylcellulose) (HPC)); 105 % of control under setting [1]; 108 % of control (dose: 50.0 mg/kg/injection, schedule: Q01DX009 (ip), vehicle: Klucel (hydroxypropylcellulose) (HPC)); 117 % of control under setting [2].
As for `NNc1cnc2ccccc2n1`, the T/C is, setting by setting: (dose: 37.5 mg/kg/injection, schedule: Q04DX003 (ip), vehicle: saline with Tween-80) 100 % of control; (dose: 75.0 mg/kg/injection, schedule: Q04DX003 (ip), vehicle: saline with Tween-80) 191 % of control; (dose: 150.0 mg/kg/injection, schedule: Q04DX003 (ip), vehicle: saline with Tween-80) 100 % of control.
Take `Cc1nc(-c2ccc(N=Cc3ccc(N(CCOS(C)(=O)=O)CCOS(C)(=O)=O)cc3C)cc2)cs1`: the T/C was 247 % of control (dose: 11.0 mg/kg/injection, schedule: Q01DX009 (ip), vehicle: Klucel (hydroxypropylcellulose) (HPC)); 277 % of control and 176 % of control (dose: 16.5 mg/kg/injection, schedule: Q01DX009 (ip), vehicle: Klucel (hydroxypropylcellulose) (HPC)); 108 % of control (dose: 24.75 mg/kg/injection, schedule: Q01DX009 (ip), vehicle: Klucel (hydroxypropylcellulose) (HPC)); 111 % of control under setting [1].
`CNc1ccccc1O`: the T/C was 102 % of control (dose: 50.0 mg/kg/injection, schedule: Q01DX009 (ip), vehicle: saline with Tween-80); 98 % of control (dose: 100.0 mg/kg/injection, schedule: Q01DX009 (ip), vehicle: saline with Tween-80); 95 % of control (dose: 200.0 mg/kg/injection, schedule: Q01DX009 (ip), vehicle: saline with Tween-80).
For `CC(=O)c1ccc2ccccc2c1OC(=O)c1ccncc1`, the T/C is 99 % of control (dose: 12.5 mg/kg/injection, schedule: Q01DX009 (ip), vehicle: other); 98 % of control (dose: 25.0 mg/kg/injection, schedule: Q01DX009 (ip), vehicle: other); 107 % of control (dose: 50.0 mg/kg/injection, schedule: Q01DX009 (ip), vehicle: other); 118 % of control under setting [3]; 107 % of control under setting [4].
For `Cn1c(CCCC(=O)O)nc2cc(N(CCCl)CCCl)ccc21`, the T/C was 116 % of control (dose: 1.8 mg/kg/injection, schedule: Q04DX003 (ip), vehicle: saline); 154 % of control (dose: 2.5 mg/kg/injection, schedule: Q01DX009 (ip), vehicle: saline); 175 % of control (dose: 4.3 mg/kg/injection, schedule: Q04DX003 (ip), vehicle: saline with Tween-80); 166 % of control (dose: 5.0 mg/kg/injection, schedule: Q01DX009 (ip), vehicle: saline); 185 % of control (dose: 6.5 mg/kg/injection, schedule: Q04DX003 (ip), vehicle: saline with Tween-80); 180 % of control (dose: 9.9 mg/kg/injection, schedule: Q04DX003 (ip), vehicle: saline with Tween-80). Further, the T/C runs as follows: (dose: 10.0 mg/kg/injection, schedule: Q01DX009 (ip), vehicle: saline) 200 % of control; (dose: 15.0 mg/kg/injection, schedule: Q04DX003 (ip), vehicle: saline with Tween-80) 200 % of control; (dose: 22.5 mg/kg/injection, schedule: Q04DX003 (ip), vehicle: saline with Tween-80) 180 % of control.
As to `COC(=O)c1ccccc1NC(=O)C(Cl)Cl`, the T/C reads like this: (dose: 75.0 mg/kg/injection, schedule: Q04DX003 (ip), vehicle: olive oil, sesame oil, peanut oil) 95 % of control; (dose: 100.0 mg/kg/injection, schedule: Q01DX001 (ip), vehicle: olive oil, sesame oil, peanut oil) 95 % of control; (dose: 150.0 mg/kg/injection, schedule: Q04DX003 (ip), vehicle: olive oil, sesame oil, peanut oil) 95 % of control; (dose: 200.0 mg/kg/injection, schedule: Q01DX001 (ip), vehicle: olive oil, sesame oil, peanut oil) 90 % of control; (dose: 300.0 mg/kg/injection, schedule: Q04DX003 (ip), vehicle: olive oil, sesame oil, peanut oil) 100 % of control; (dose: 400.0 mg/kg/injection, schedule: Q01DX001 (ip), vehicle: olive oil, sesame oil, peanut oil) 100 % of control.
For `CCOC(=O)CNC(c1ccccc1)(c1ccccc1)c1ccccc1`, the T/C under setting [2] was 95 % of control; the T/C under setting [5] was 109 % of control; the T/C under setting [6] is 91 % of control; the T/C under setting [7] is 113 % of control; the T/C under setting [8] is 108 % of control; the T/C under setting [9] is 104 % of control.
For `CC(C)C(=O)c1ccco1`, the T/C was 95 % of control (dose: 6.25 mg/kg/injection, schedule: Q04DX003 (ip), vehicle: saline with Tween-80); 100 % of control (dose: 12.5 mg/kg/injection, schedule: Q04DX003 (ip), vehicle: saline with Tween-80); 90 % of control (dose: 25.0 mg/kg/injection, schedule: Q04DX003 (ip), vehicle: saline with Tween-80).
Consider `CN(C)P(=O)(N(C)C)N(C)CC[N+](C)(C)C`, for which the T/C runs as follows: (dose: 50.0 mg/kg/injection, schedule: Q01DX009 (ip), vehicle: saline) 103 % of control; (dose: 100.0 mg/kg/injection, schedule: Q01DX009 (ip), vehicle: saline) 101 % of control; (dose: 200.0 mg/kg/injection, schedule: Q01DX009 (ip), vehicle: saline) 100 % of control.
`Oc1ccc2ccccc2c1N=Nc1ccccc1`: the T/C is 87 % of control under setting [2]; 109 % of control under setting [5]; 104 % of control under setting [6]; 104 % of control under setting [7]; 91 % of control under setting [8]; 104 % of control under setting [9].
`CCCCn1cnc2c(SC3CCCC3)ncnc21`: the T/C by setting is: under setting [3], 100 % of control; (dose: 100.0 mg/kg/injection, schedule: Q04DX003 (ip), vehicle: saline sonified) 100 % of control; under setting [4], 90 % of control; (dose: 200.0 mg/kg/injection, schedule: Q04DX003 (ip), vehicle: saline sonified) 100 % of control; (dose: 400.0 mg/kg/injection, schedule: Q01DX009 (ip), vehicle: other) 120 % of control; (dose: 400.0 mg/kg/injection, schedule: Q04DX003 (ip), vehicle: saline sonified) 100 % of control.
As for `BrC1CCCCCC(Br)C12OCCO2` (centres undefined), the T/C is 100 % of control under setting [5], 95 % of control under setting [7] and 100 % of control under setting [9].
For `CCCCC(CC)CC1CCCCC1O` (centres undefined), the T/C is, setting by setting: under setting [2], 87 % of control; under setting [5], 122 % of control; under setting [6], 91 % of control; under setting [7], 109 % of control; under setting [9], 95 % of control.
As to `O=C(O)C(Br)(C(=O)O)c1ccccc1`, the T/C by setting is: (dose: 100.0 mg/kg/injection, schedule: Q04DX002 (ip), vehicle: saline with Tween-80) 93 % of control; (dose: 200.0 mg/kg/injection, schedule: Q04DX002 (ip), vehicle: saline with Tween-80) 97 % of control; (dose: 400.0 mg/kg/injection, schedule: Q04DX002 (ip), vehicle: saline with Tween-80) 93 % of control.
Take `CCOC(=O)c1ccc(Oc2ncc([N+](=O)[O-])s2)cc1`: the T/C was 90 % of control (dose: 1.85 mg/kg/injection, schedule: Q01DX009 (ip), vehicle: saline); 100 % of control (dose: 3.71 mg/kg/injection, schedule: Q01DX009 (ip), vehicle: saline); 90 % of control (dose: 7.42 mg/kg/injection, schedule: Q01DX009 (ip), vehicle: saline); 90 % of control (dose: 10.0 mg/kg/injection, schedule: Q01DX009 (ip), vehicle: saline with Tween-80); 86 % of control (dose: 16.0 mg/kg/injection, schedule: Q01DX009 (ip), vehicle: saline with Tween-80); 95 % of control (dose: 24.0 mg/kg/injection, schedule: Q01DX009 (ip), vehicle: saline with Tween-80).
